# Entries after “also recorded” stand apart in the source; their conditions may differ. Like-named read-outs stand apart in the source and are kept apart here.
# What was measured:
# [1] = tested on: Caucasian participants with nAMD; conditions: cited from earlier work
# [2] = tested on: human umbilical vein endothelial cells stimulated with rHuVEGF165; design: method as in PMID 33610563; conditions: HUVEC stimulated with rHuVEGF165; cited from earlier work
# [3] = tested on: study eyes of participants with nAMD; test: Efficacy: change from baseline in BCVA (ETDRS), CST and CNV characteristics; format: in vivo, human
# Protocol: The efficacy outcomes included changes from baseline in mean BCVA based on ETDRS, central subfield thickness (CST), and CNV characteristics. CST was confirmed by a […] (Heidelberg Engineering, Heidelberg, Germany) at screening, Day 14, and Day 30; then monthly for the next 6 months; and then every 3 months until the end of treatment. FA was performed by a Heidelberg retina tomograph (Heidelberg Engineering) with an Ophthavision Imaging System (MRP Group, Boston, MA) capture station at the screening, Day 90, Day 180, Day 270 and Day 360 visits.
# Because this was a phase I study, no power calculation was performed to determine sample size. All participants who had received at least one dose of vorolanib were included in the safety assessment. All participants who completed the course of vorolanib treatment were included for efficacy assessment. All participants who had received at least one dose of vorolanib and who had PK data were included in the PK analysis. Descriptive statistics were used for analyses. For quantitative data, the means ± standard deviations were selected. All statistical analyses were performed with SAS software, v. 9.4 (SAS Institute Inc., Cary, NC, USA).
# [4] = tested on: oxygen-induced retinopathy mice; design: method as in PMID 33610563; conditions: cited from earlier work
# [5] = Pharmacokinetics of vorolanib after single and multiple dosing; format: in vivo, human; conditions: for half-life / Cmax / Tmax / AUC / Vd/F / AUC(0-t): human, plasma, oral; for Tmax: median (range); for Vd/F: read-out: Vz/F (apparent volume of distribution); for AUC(0-t): read-out: AUC0-24h
# Protocol: In the initial PK evaluation after a single dose, blood samples from participants in the 25 mg group were collected predose (−0.5 h) and at 0.5, 1, 2, 3, 4, 6, 8, 12, 16, 24, 36, and 48 h post-dose; blood samples from participants in the 50 mg and 75 mg groups were collected predose (−0.5 h) and at 0.5, 1, 2, 3, 4, 6, 8, 12, 16, 24, 36, 48, and 72 h post-dose. During continuous dosing, blood in the 50 mg group was obtained on Day 7, Day 14 and Day 21 predose and on Day 30 predose and at 0.5, 1, 2, 3, 4, 6, 8, 12, 16 and 24 h post-dose, while blood in the 75 mg group was obtained on Day 7, Day 14 and Day 21 predose and on Day 30 predose and at 0.5, 1, 2, 3, 4, 6, 8, 12, 16, 24, 36, 48, and 72 h post-dose. The multiple dose data for 25 mg were not collected.
# All participants moved from single dosing to multiple daily dosing.
# CNV rat model = tested on: CNV rat model; design: method as in PMID 29201457; conditions: oral administration; cited from earlier work
# [6] = continuous dose administration, 50 to 75 mg
# [7] = multiple doses 50 mg daily, n = 8, arithmetic mean (%CV)
# [8] = multiple doses 75 mg daily, n = 8, arithmetic mean (%CV)
smiles,measurement,setting,value
"Cc1[nH]c(/C=C2\C(=O)Nc3ccc(F)cc32)c(C)c1C(=O)N[C@H]1CCN(C(=O)N(C)C)C1 [vorolanib, Vorolanib]",Participants with ocular AEs,"[1]; 4 of 35 participants, none related to vorolanib",11.4%
same,Participants with serious AEs,"[1]; 4 serious AEs in 3 participants, none attributed to vorolanib",8.6%
same,Mean BCVA change,[1]; at 24 weeks,+3.8 letters
same,Deaths or DLTs,[1],no deaths or DLTs
same,Systemic AEs,[1]; number of events,94
same,Vorolanib-related systemic AEs,[1]; of 94 systemic AEs,32
same,Mean reduction in CST,[1]; participants that completed 24 weeks,50 μm
same,Antiangiogenic effects,[2],highly antiangiogenic effects
same,Mean Change from Baseline to day 180 CST,"[3]; 25 mg cohort, N 16",−11.7 μm
same,Mean Change from Baseline to day 360 BCVA,"[3]; 25 mg cohort, N 16",+4.3 letters
same,Mean Change from Baseline to day 360 CST,"[3]; 25 mg cohort, N 16",−27.0 μm
same,Mean Change from Baseline to day 180 CST,"[3]; 50 mg cohort, N 16",−85.0 μm
same,Mean Change from Baseline to day 360 BCVA,"[3]; 50 mg cohort, N 16",+8.5 letters
same,Mean Change from Baseline to day 360 CST,"[3]; 50 mg cohort, N 16",−54.8 μm
same,Mean Change from Baseline to day 180 CST,"[3]; 75 mg cohort, N 8",−33.0 μm
same,Mean Change from Baseline to day 360 BCVA,"[3]; 75 mg cohort, N 8",+12.0 letters
same,Mean Change from Baseline to day 360 CST,"[3]; 75 mg cohort, N 8",−45.5 μm
same,Mean decrease in CNV area,"[3]; 41 participants, baseline to Day 360, range −3.8–0.2",−0.9 mm^2
same,Mean decrease in lesion area,"[3]; 41 participants, baseline to Day 360, range −4.8–0.5",−1.3 mm^2
same,Mean decrease in CNV leakage,"[3]; 41 participants, baseline to Day 360, range −10.8–0.2",−4.0 mm^2
same,Mean BCVA improvement at follow-up after treatment,[3]; 75.6% of participants who continued follow-up one month after vorolanib treatment,2.6 letters
same,Participants evaluable at Day 360 who maintained or improved vision,[3]; Day 360,12 (29.3%) participants (%)
same,Reduced CNV area,[3]; accompanying decline in CNV leakage,37.4%
same,Mean Change from Baseline to day 180 CST,"[3]; all cohorts, N 41",−48.6 μm
same,Mean Change from Baseline to day 360 CST,"[3]; all cohorts, N 41, range −258–40",−44.0 μm
same,Mean reduction in CST,"[3]; by Day 180, all participants",48.6 μm
same,Retinal neovascularization and avascular area in the retina,[4],markedly inhibited
same,Accumulation,[5]; [6],no obvious accumulation
same,Time to steady-state concentration,[5]; [6],4 days
same,Dose dependence of maximum blood concentration and area under the curve,[5]; doses of 25–50 mg after a single dose,increased linearly in a dose-dependent manner
same,half-life,"[5]; 25 mg, single dose 25 mg, n = 8, arithmetic mean (%CV)",354 min
same,Cmax,"[5]; 25 mg, single dose 25 mg, n = 8, arithmetic mean (%CV), read-out: Cmax",140 ng/mL
same,Tmax,"[5]; 25 mg, single dose 25 mg, n = 8, read-out: Tmax",3.03 h
same,half-life,"[5]; 50 mg, multiple doses 50 mg daily, n = 8, arithmetic mean (%CV)",294 min
same,Cmax,"[5]; 50 mg, multiple doses 50 mg daily, n = 8, arithmetic mean (%CV), read-out: Cmax,ss",246 ng/mL
same,Tmax,"[5]; 50 mg, multiple doses 50 mg daily, n = 8, read-out: Tmax,ss",5.03 h
same,half-life,"[5]; 50 mg, single dose 50 mg, n = 8, arithmetic mean (%CV)",642 min
same,Cmax,"[5]; 50 mg, single dose 50 mg, n = 8, arithmetic mean (%CV), read-out: Cmax",201 ng/mL
same,Tmax,"[5]; 50 mg, single dose 50 mg, n = 8, read-out: Tmax",6 h
same,half-life,"[5]; 75 mg, multiple doses 75 mg daily, n = 8, arithmetic mean (%CV)",438 min
same,Cmax,"[5]; 75 mg, multiple doses 75 mg daily, n = 8, arithmetic mean (%CV), read-out: Cmax,ss",269 ng/mL
same,Tmax,"[5]; 75 mg, multiple doses 75 mg daily, n = 8, read-out: Tmax,ss",4 h
same,half-life,"[5]; 75 mg, single dose 75 mg, n = 8, arithmetic mean (%CV)",618 min
same,Cmax,"[5]; 75 mg, single dose 75 mg, n = 8, arithmetic mean (%CV), read-out: Cmax",237 ng/mL
same,Tmax,"[5]; 75 mg, single dose 75 mg, n = 8, read-out: Tmax",4 h
same,half-life,"[5]; single dosing, 25–75 mg cohorts, approximately",354 to 642 min
same,AUC,[5]; [7],2180 ng·h/mL
same,Vd/F,[5]; [7],180 L
same,AUC,[5]; [8],1950 ng·h/mL
same,Vd/F,[5]; [8],436 L
same,AUC(0-t),"[5]; single dose 25 mg, n = 8, arithmetic mean (%CV)",1010 ng·h/mL
same,AUC(0-t),"[5]; single dose 50 mg, n = 8, arithmetic mean (%CV)",1730 ng·h/mL
same,AUC(0-t),"[5]; single dose 75 mg, n = 8, arithmetic mean (%CV)",1700 ng·h/mL
same,CLss/F (apparent oral clearance),[5]; [7],26.2 (40.1) L/h
same,Rac (accumulation ratio based on AUCss),[5]; [7],1.30 (31.3)
same,CLss/F (apparent oral clearance),[5]; [8],42.4 (32.7) L/h
same,Rac (accumulation ratio based on AUCss),[5]; [8],1.20 (36.2)
same,AUC in Chinese people versus Americans,"[5]; preliminary PK results, unpublished data",relatively higher AUC in Chinese people than in Americans
same,CNV lesion area and pathological neovascularization,CNV rat model,strongly repressed CNV; also recorded: reduced the CNV lesion area and pathological neovascularization

# — PMC10564794, “Safety and tolerability of oral vorolanib for neovascular (wet) age-related macular degeneration: a phase I, open-label study” (Eye, 2023)
